# Where two headings read alike, the source gives them in different places.
# Key:
# [1] = in vitro; settings: human
# [2] = in vitro; settings: mouse, microsomes, mouse liver microsomes
# [3] = in vitro; settings: Swiss, mouse
# [4] = in vitro; settings: PAMPA
# [5] = test system: Leishmania infantum MHOM/MA(BE)/67/ITMAP263 intracellular amastigotes; assay: microbe, parasite or virus in culture; settings: Macrophage, in Mus musculus
# [6] = test system: Trypanosoma cruzi, Tulahuen CL2, beta-galactosidase strain; assay: microbe, parasite or virus in culture
# [7] = physchem; settings: HPLC, Ascentis Express RP Amide column, pH 7.4, eLogD
# [8] = in vitro; settings: human, microsomes, human liver microsomes
# [9] = test system: primary peritoneal mouse macrophages (PMM); settings: PMM IC50 / L. infantum IC50
# [10] = test system: Leishmania infantum (MHOM/MA/67/ITMAP-263) intracellular amastigotes in THP-1; assay: microbe, parasite or virus in culture; settings: THP-1, read-out: L. infantum MHOM/MA/67/ITMAP263 intracellular amastigotes THP-1 cells IC50 (uM)
# [11] = in vitro; settings: human, THP-1 cells differentiated with PMA
# [12] = in vitro; settings: human, HFF-1 cells
# [13] = in vitro; settings: PAMPA; remark: listed apart in the source
# [14] = test system: primary peritoneal mouse macrophages (PMM); assay: cells; settings: Macrophage, read-out: PMM IC50 (uM)
# [15] = in vitro; settings: human, HepG2 cells
# [16] = read-out: L. Inf. pIC50, from L. infantum intracellular amastigote IC50 (converted)
# [17] = read-out: L. infantum MHOM/MA(BE)/67/ITMAP263 intracellular amastigotes IC50
# [18] = MRC5, read-out: T. cruzi Tulahuen C4 (LacZ) IC50
# [19] = read-out: L. infantum MHOM/MA(BE)/67/ITMAP263 intracellular amastigotes IC50 (uM), intracellular amastigotes
# [20] = MRC5, read-out: T. cruzi Tulahuen C4 (LacZ) IC50 (uM)
Structure (SMILES),CC50 at 3 days [1] [µM],IC50 [3] [µM],Papp [4] [×10⁻⁶ cm/s],"IC50 [5, 16] [µM]","IC50 [5, 17] [µM]","IC50 [6, 18] [µM]","microsomal CLint at 0.5 μM ([8]; pH 7.4, HLM CLint) [µL/min/mg]",SI (vs PMM) [9],IC50 [10] [µM],CC50 at 120 h [11] [µM],"microsomal CLint at 0.5 μM ([2]; pH 7.4, MLM CLint (uL/min/mg)) [µL/min/mg]","IC50 [5, 19] [µM]",CC50 [12] [µM],"IC50 [6, 20] [µM]",chromatographic logD ([7]; experimental),Papp [13] [×10⁻⁶ cm/s],"microsomal CLint at 0.5 μM ([8]; pH 7.4, HLM CLint (uL/min/mg)) [µL/min/mg]",IC50 [14] [µM],CC50 [15] [µM],also measured
CCN(Cc1ccccc1)S(=O)(=O)c1ccccc1C#N [DNDI0002574585],> 64,> 64,16.6,25.7,25.6,29.3,306,2,–,–,–,–,–,–,–,–,–,–,–,"microsomal CLint at 0.5 μM ([2]; pH 7.4, MLM CLint): 1060 µL/min/mg; chromatographic logD [7]: 3.5"
COc1ccc(OC)c(S(=O)(=O)N(Cc2ccccc2)Cc2ccccc2)c1 [DNDI0003292440],45.2,> 64,0.43,0.372,0.36,5.71,242,–,–,–,–,–,–,–,–,–,–,–,–,"microsomal CLint at 0.5 μM ([2]; pH 7.4, MLM CLint): 1300 µL/min/mg"
CCN(Cc1ccccc1)S(=O)(=O)c1ccc(C)cc1 [DNDI0003297129],> 64,> 64,5.38,49,49.4,28.8,1740,1,–,–,–,–,–,–,–,–,–,–,–,chromatographic logD [7]: 4.1
CCN(Cc1ccccc1)S(=O)(=O)c1ccc(OC)cc1 [DNDI0003297130],> 64,> 64,7.68,11,11,18.5,676,6,–,–,–,–,–,–,–,–,–,–,–,"microsomal CLint at 0.5 μM ([2]; pH 7.4, MLM CLint): 3010 µL/min/mg; chromatographic logD [7]: 3.9"
CCCCC(=O)Nc1cccnc1S(=O)(=O)CCc1ccccc1 [DNDI0003363561],> 64,> 64,18.9,> 64,> 64,> 64,–,1,–,–,–,–,–,–,–,–,–,–,–,chromatographic logD [7]: 3.9
CCN(Cc1ccccc1)S(=O)(=O)c1cc(OC)ccc1OC [DNDI0003365407],> 64,> 64,11.9,2.51,2.53,27.4,534,25,–,–,–,–,–,–,–,–,–,–,–,"microsomal CLint at 0.5 μM ([2]; pH 7.4, MLM CLint): 3500 µL/min/mg"
COc1ccc(Cl)cc1S(=O)(=O)N(CCO)Cc1ccccc1 [DNDI0003366068],> 64,> 64,20.1,37.2,37.5,26.8,180,2,–,–,–,–,–,–,–,–,–,–,–,chromatographic logD [7]: 3.5
COCCN(Cc1ccccc1)S(=O)(=O)c1ccccc1OC(F)(F)F [DNDI0003392130],> 64,–,–,8.32,–,–,–,–,31.2,> 64,222,8.27,45.1,17.8,3.8,5.26,194,> 64,> 64,–
NS(=O)(=O)c1cc2c(cc1Cl)NCN(Cc1ccccc1)S2(=O)=O [DNDI0003392143],> 64,–,–,57.5,–,–,–,–,> 64,> 64,164,57,> 64,27.2,2.3,2.83,21,> 64,> 64,–
O=S(=O)(NCc1ccccc1)c1cc2c(cc1Cl)NCN(Cc1ccccc1)S2(=O)=O [DNDI0003392144],> 64,–,–,> 64,–,–,–,–,> 64,53.2,261,> 64,60.2,35.7,3.7,1.61,82,> 64,> 64,–
COc1ccc(Cl)cc1S(=O)(=O)N(Cc1ccccc1)C1COC(=O)OC1 [DNDI0003392146],59.1,–,–,17,–,–,–,–,> 64,> 64,118,16.9,54.8,17,3.5,13.2,21,> 64,> 64,–
CCCCC1Nc2cc(Cl)c(S(N)(=O)=O)cc2S(=O)(=O)N1Cc1ccccc1 (stereo not shown) [DNDI0003392147],> 64,–,–,7.24,–,–,–,–,23.4,12,147,7.3,> 64,> 64,4,1.39,22,> 64,> 64,–
CCCCOc1ccc(C(=O)N2CCOCC2)cc1S(=O)(=O)NCc1ccccc1 [DNDI0003407874],> 64,–,–,> 64,–,–,–,–,> 64,> 64,274,> 64,> 64,45.9,3.1,27.4,160,> 64,> 64,–
O=C(c1ccc(OCC2CCCO2)c(S(=O)(=O)NCc2ccccc2)c1)N1CCOCC1 (stereo not shown) [DNDI0003407877],> 64,–,–,> 64,–,–,–,–,> 64,> 64,181,> 64,> 64,31,2.7,14.7,85,> 64,> 64,–
COc1ccc(S(N)(=O)=O)cc1S(=O)(=O)NCc1ccccc1 [DNDI0003407892],> 64,–,–,> 64,–,–,–,–,> 64,> 64,23,> 64,> 64,> 64,1.1,0.61,20,> 64,> 64,–
COc1ccc(C(=O)N2CCOCC2)cc1S(=O)(=O)N(Cc1ccc(C(F)(F)F)nc1)C(C)c1ccc(F)cc1 (stereo not shown) [DNDI0003407905],> 64,–,–,2.34,–,–,–,–,9.86,> 64,531,2.36,49.4,25,3.8,18.1,267,> 64,> 64,–
COc1cc2c(cc1S(=O)(=O)N(Cc1ccccc1)Cc1ccccc1)S(=O)(=O)NCN2 [DNDI0003425513],22.9,–,–,2.51,–,–,–,–,48.3,> 64,249,2.53,21.9,9.44,3.6,0.38,100,> 64,> 64,–
COc1ccc(S(C)(=O)=O)cc1S(=O)(=O)N(Cc1ccccc1)CC(C)(C)C [DNDI0003425524],> 64,–,–,2.69,–,–,–,–,47.7,> 64,1100,2.69,57.2,28.7,3.6,14.1,1050,> 64,> 64,–
COc1ccc(S(C)(=O)=O)cc1S(=O)(=O)N(Cc1ccccc1)Cc1cc(C(F)(F)F)nn1C [DNDI0003578374],> 64,–,–,13.2,–,–,–,–,> 64,> 64,182,13.1,> 64,> 64,3.5,7.6,60,> 64,> 64,–
COc1ccc(C#N)cc1S(=O)(=O)N(Cc1ccc(C(F)(F)F)nc1)Cc1ccc(C(F)(F)F)nc1 [DNDI0003578377],> 64,–,–,38,–,–,–,–,> 64,> 64,64,38.1,> 64,61.7,3.9,3.45,17,> 64,> 64,–

# — PMC8126888 (RSC Medicinal Chemistry, 2020)
